PubChem BioAssay AID330 (DTP/NCI, 2004)
“And” between values parts separate entries of the source, which are not always exact repeats. Equal entries are not always repeated. Toxic doses and inconclusive results are not listed.

Test system: P388 leukemia ip, CD2F1 mice, survival T/C
Assay: NCI In Vivo Anticancer Drug Screen. Data for tumor model P388 Leukemia (intraperitoneal) in CD2F1 (CDF1) mice
Conditions: endpoint: median survival time, higher = longer survival
Summary of the method: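 Mice carrying the transplanted tumor received test compound or vehicle. Survival was recorded in each group, and the value is the treated-group measurement divided by that of the vehicle-treated control group.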

[1] = dose: 6.25 mg/kg/injection, schedule: Q01DX005 (ip), vehicle: Klucel (hydroxypropylcellulose) (HPC)
[2] = dose: 12.5 mg/kg/injection, schedule: Q01DX005 (ip), vehicle: Klucel (hydroxypropylcellulose) (HPC)
[3] = dose: 25.0 mg/kg/injection, schedule: Q01DX005 (ip), vehicle: Klucel (hydroxypropylcellulose) (HPC)
[4] = dose: 25.0 mg/kg/injection, schedule: Q01DX005 (ip), vehicle: saline with Tween-80
[5] = dose: 50.0 mg/kg/injection, schedule: Q01DX005 (ip), vehicle: saline with Tween-80
[6] = dose: 60.0 mg/kg/injection, schedule: Q01DX005 (ip), vehicle: saline with Tween-80
[7] = dose: 120.0 mg/kg/injection, schedule: Q01DX005 (ip), vehicle: saline with Tween-80
[8] = dose: 240.0 mg/kg/injection, schedule: Q01DX005 (ip), vehicle: saline with Tween-80
[9] = dose: 100.0 mg/kg/injection, schedule: Q01DX001 (ip), vehicle: saline with Tween-80

Compound: CC1CCC2C(C)C3C(CC4C5CC=C6CC(OC7OC(CO)C(O)C(OC8OC(CO)C(O)C(O)C8O)C7OC7OC(C)C(O)C(O)C7O)CCC6(C)C5CCC43C)N2C1 (configuration not stated)
- T/C [1]: 91 % of control
- T/C [2]: 95 % of control
- T/C [3]: 89 % of control
- T/C (dose: 25.0 mg/kg/injection, schedule: Q04DX003 (ip), vehicle: suspension in saline): 98 % of control
- T/C (dose: 50.0 mg/kg/injection, schedule: Q04DX003 (ip), vehicle: suspension in saline): 96 % of control
- T/C (dose: 100.0 mg/kg/injection, schedule: Q04DX003 (ip), vehicle: suspension in saline): 105 % of control

Compound: CC1=C(C)C(=O)c2c(c(O)c3ccccc3c2Cl)C1=O
- T/C (dose: 0.75 mg/kg/injection, schedule: Q01DX005 (ip), vehicle: saline with Tween-80): 96 % of control
- T/C (dose: 1.5 mg/kg/injection, schedule: Q01DX005 (ip), vehicle: saline with Tween-80): 89 % of control
- T/C (dose: 3.0 mg/kg/injection, schedule: Q01DX005 (ip), vehicle: saline with Tween-80): 91 % of control
- T/C (dose: 200.0 mg/kg/injection, schedule: Q01DX005 (ip), vehicle: saline with Tween-80): 93 % of control

Compound: CC1CC(OC(=O)CSC#N)CC(C)(C)C1 (configuration not stated)
- T/C (dose: 12.5 mg/kg/injection, schedule: Q01DX005 (ip), vehicle: saline with Tween-80): 104 % of control
- T/C [4]: 101 % of control
- T/C [5]: 101 % of control and 108 % of control

Compound: O=S(=O)(Nc1ccccn1)c1ccc(NCc2c3ccccc3nc3cc(Cl)ccc23)cc1
- T/C [6]: 97 % of control
- T/C [7]: 98 % of control
- T/C [8]: 96 % of control

Compound: [NH-]CC(=O)O.[NH-]CC(=O)O.[Pt+2]
- T/C (dose: 3.13 mg/kg/injection, schedule: Q01DX009 (ip), vehicle: water): 97 % of control
- T/C (dose: 6.25 mg/kg/injection, schedule: Q01DX009 (ip), vehicle: distilled water + Tween-80): 119 % of control
- T/C (dose: 6.25 mg/kg/injection, schedule: Q01DX009 (ip), vehicle: water): 90 % of control and 112 % of control
- T/C (dose: 12.5 mg/kg/injection, schedule: Q01DX009 (ip), vehicle: distilled water + Tween-80): 111 % of control
- T/C (dose: 12.5 mg/kg/injection, schedule: Q01DX009 (ip), vehicle: water): 106 % of control and 110 % of control
- T/C (dose: 25.0 mg/kg/injection, schedule: Q01DX009 (ip), vehicle: water): 100 % of control and 112 % of control
- T/C (dose: 50.0 mg/kg/injection, schedule: Q01DX009 (ip), vehicle: distilled water + Tween-80): 119 % of control
- T/C (dose: 50.0 mg/kg/injection, schedule: Q01DX009 (ip), vehicle: water): 97 % of control
- T/C (dose: 100.0 mg/kg/injection, schedule: Q01DX009 (ip), vehicle: distilled water + Tween-80): 115 % of control
- T/C (dose: 100.0 mg/kg/injection, schedule: Q01DX009 (ip), vehicle: water): 97 % of control
- T/C (dose: 200.0 mg/kg/injection, schedule: Q01DX009 (ip), vehicle: distilled water + Tween-80): 98 % of control

Compound: O=C(Nc1ncc([N+](=O)[O-])s1)C(Cl)Cl
- T/C (dose: 50.0 mg/kg/injection, schedule: Q01DX009 (ip), vehicle: Klucel (hydroxypropylcellulose) (HPC)): 118 % of control
- T/C (dose: 100.0 mg/kg/injection, schedule: Q01DX009 (ip), vehicle: Klucel (hydroxypropylcellulose) (HPC)): 111 % of control

Compound: O=S(=O)(O)Sc1ncnc2nc[nH]c12
- T/C (dose: 50.0 mg/kg/injection, schedule: Q01DX009 (ip), vehicle: saline): 108 % of control
- T/C (dose: 75.0 mg/kg/injection, schedule: Q04DX003 (ip), vehicle: saline): 100 % of control
- T/C (dose: 100.0 mg/kg/injection, schedule: Q01DX009 (ip), vehicle: saline): 122 % of control
- T/C (dose: 150.0 mg/kg/injection, schedule: Q04DX003 (ip), vehicle: saline): 98 % of control
- T/C (dose: 200.0 mg/kg/injection, schedule: Q01DX009 (ip), vehicle: saline): 108 % of control
- T/C (dose: 300.0 mg/kg/injection, schedule: Q04DX003 (ip), vehicle: saline): 108 % of control

Compound: O=C(NCCCl)Oc1ccc(F)cc1
- T/C (dose: 50.0 mg/kg/injection, schedule: Q01DX005 (ip), vehicle: Klucel (hydroxypropylcellulose) (HPC)): 100 % of control
- T/C (dose: 100.0 mg/kg/injection, schedule: Q01DX005 (ip), vehicle: Klucel (hydroxypropylcellulose) (HPC)): 100 % of control
- T/C (dose: 200.0 mg/kg/injection, schedule: Q01DX005 (ip), vehicle: Klucel (hydroxypropylcellulose) (HPC)): 110 % of control

Compound: CCCCCCCCCCCCCCCC(=O)Nc1ccn(C2OC(CO)C(O)C2O)c(=O)n1 (configuration not stated)
- T/C (dose: 3.12 mg/kg/injection, schedule: Q01DX009 (ip), vehicle: suspension in saline): 172 % of control
- T/C (dose: 6.25 mg/kg/injection, schedule: Q01DX009 (ip), vehicle: suspension in saline): 188 % of control
- T/C (dose: 12.5 mg/kg/injection, schedule: Q01DX009 (ip), vehicle: suspension in saline): 191 % of control and 235 % of control
- T/C (dose: 25.0 mg/kg/injection, schedule: Q01DX009 (ip), vehicle: suspension in saline): 260 % of control and 283 % of control

Compound: COC(=O)/C=C1\C=CC(=O)OC1O (configuration not stated)
- T/C [1]: 102 % of control
- T/C [2]: 103 % of control
- T/C [3]: 113 % of control

Compound: C=CCOc1cccc(OCC=C)c1C
- T/C (dose: 100.0 mg/kg/injection, schedule: Q04DX003 (ip), vehicle: saline with Tween-80): 113 % of control
- T/C (dose: 200.0 mg/kg/injection, schedule: Q04DX003 (ip), vehicle: saline with Tween-80): 100 % of control
- T/C (dose: 400.0 mg/kg/injection, schedule: Q04DX003 (ip), vehicle: saline with Tween-80): 104 % of control

Compound: NC(=S)NNC(=O)c1cccs1
- T/C [6]: 108 % of control
- T/C [7]: 100 % of control
- T/C [8]: 99 % of control

Compound: C=C(C(=O)OC)C(O)CC (configuration not stated)
- T/C (dose: 50.0 mg/kg/injection, schedule: Q01DX005 (ip), vehicle: saline): 91 % of control
- T/C (dose: 100.0 mg/kg/injection, schedule: Q01DX005 (ip), vehicle: saline): 107 % of control
- T/C (dose: 200.0 mg/kg/injection, schedule: Q01DX005 (ip), vehicle: saline): 100 % of control

Compound: CN(C)CC(CN(C)C)C(=O)c1ccc(Oc2ccc(Cl)cc2)cc1
- T/C (dose: 1.88 mg/kg/injection, schedule: Q01DX005 (ip), vehicle: saline): 110 % of control
- T/C (dose: 3.75 mg/kg/injection, schedule: Q01DX005 (ip), vehicle: saline): 116 % of control
- T/C (dose: 7.5 mg/kg/injection, schedule: Q01DX005 (ip), vehicle: saline): 107 % of control and 112 % of control

Compound: COc1cc(-c2nnc(C3CCC(=O)N3Cc3ccccc3)o2)cc(OC)c1OC (configuration not stated)
- T/C [6]: 103 % of control
- T/C [7]: 100 % of control
- T/C [8]: 97 % of control

Compound: CC(C)C12CN1C2(c1ccccc1)c1ccccc1 (configuration not stated)
- T/C [6]: 100 % of control
- T/C [7]: 106 % of control
- T/C [8]: 107 % of control

Compound: O=C1CS(=O)(=O)C(c2ccccn2)N1CCN1C(=O)CS(=O)(=O)C1c1ccccn1 (configuration not stated)
- T/C [9]: 100 % of control and 101 % of control
- T/C (dose: 100.0 mg/kg/injection, schedule: Q04DX002 (ip), vehicle: saline with Tween-80): 90 % of control
- T/C (dose: 200.0 mg/kg/injection, schedule: Q01DX001 (ip), vehicle: saline with Tween-80): 92 % of control and 97 % of control
- T/C (dose: 200.0 mg/kg/injection, schedule: Q04DX002 (ip), vehicle: saline with Tween-80): 98 % of control
- T/C (dose: 400.0 mg/kg/injection, schedule: Q01DX001 (ip), vehicle: saline with Tween-80): 89 % of control and 101 % of control
- T/C (dose: 400.0 mg/kg/injection, schedule: Q04DX002 (ip), vehicle: saline with Tween-80): 91 % of control

Compound: Cc1c(COC(=O)NC(C)C)c(COC(=O)NC(C)C)c2n1CS(=O)(=O)C2
- T/C [4]: 159 % of control
- T/C [5]: 184 % of control and 188 % of control
- T/C (dose: 100.0 mg/kg/injection, schedule: Q01DX005 (ip), vehicle: saline with Tween-80): 218 % of control

Compound: O=C1C(Cl)=C(Cl)C(=O)C(/C=C/N2CCOCC2)=C1Cl
- T/C (dose: 50.0 mg/kg/injection, schedule: Q01DX001 (ip), vehicle: saline with Tween-80): 102 % of control
- T/C [9]: 98 % of control

Compound: Cc1ccc(C)c(C(=O)CCN(C)C)c1
- T/C (dose: 15.0 mg/kg/injection, schedule: Q01DX005 (ip), vehicle: saline): 106 % of control
- T/C (dose: 30.0 mg/kg/injection, schedule: Q01DX005 (ip), vehicle: saline): 94 % of control
- T/C (dose: 60.0 mg/kg/injection, schedule: Q01DX005 (ip), vehicle: saline): 99 % of control and 101 % of control
